# Assays:
# [1] = biological target: T1, α-Glucosidase from Saccharomyces cerevisiae (EC 3.2.1.20) (Saccharomyces cerevisiae, UniProt P53341); test: biochemical
# T1 construct: purchased Sigma-Aldrich
# [2] = biological target: T1, α-Glucosidase from Saccharomyces cerevisiae (EC 3.2.1.20); test: Enzyme inhibitory mechanism and kinetic type assay (Lineweaver-Burk plots); assay type: biochemical; settings: compound 0–25 μM
# Excerpt: To study the inhibitory mechanisms of all derivatives on α-glucosidase, enzyme inhibitory mechnism was detected using compound 4 with the strongest inhibitory. Figure 3A illustrated the plots of enzyme activity vs. enzyme concentration.
# The kinetic type was also studied using Lineweaver-Burk plots.
# α-Glucosidase from Saccharomyces cerevisiae (EC 3.2.1.20) and p-Nitrophenyl-α-D-[…] (p-NPG) were purchased from Sigma-Aldrich. All additional reagents and solvents were readily obtained from a commercial source. NMR spectra were obtained on 500 MHz equipment in CDCl3. High-resolution mass spectral (HRMS) data was recorded on Apex II using the ESI technique.
# The α-glucosidase inhibitory activity of compounds (1 ∼ 6) was detected as described in previous reports ([Adisakwattana et al., 2009]; [Adisakwattana et al., 2013]; [Zhang et al., 2022]). 10 μl α-glucosidase solution, 10 μl compound were added into 80 μl phosphate buffer, and the mixture was incubated for 10 min. Then, 100 μl p-NPG solution was added into the mixture, followed by the absorbance change detection at 405 nm. The inhibition rate (%) = […] × 100%, where OD1 and OD0 were the absorbance of tested compound and blank, respectively. The IC50 value was calculated from the plot of inhibition rate vs. compound concentration. Acarbose was used as a positive sample. All samples were repeated four times. The enzyme inhibitory mechnism and kinetic type were also determined according to previous reported reports ([Adisakwattana et al., 2004]; [Song et al., 2016]).
# T1 sequence (P53341 whole entry): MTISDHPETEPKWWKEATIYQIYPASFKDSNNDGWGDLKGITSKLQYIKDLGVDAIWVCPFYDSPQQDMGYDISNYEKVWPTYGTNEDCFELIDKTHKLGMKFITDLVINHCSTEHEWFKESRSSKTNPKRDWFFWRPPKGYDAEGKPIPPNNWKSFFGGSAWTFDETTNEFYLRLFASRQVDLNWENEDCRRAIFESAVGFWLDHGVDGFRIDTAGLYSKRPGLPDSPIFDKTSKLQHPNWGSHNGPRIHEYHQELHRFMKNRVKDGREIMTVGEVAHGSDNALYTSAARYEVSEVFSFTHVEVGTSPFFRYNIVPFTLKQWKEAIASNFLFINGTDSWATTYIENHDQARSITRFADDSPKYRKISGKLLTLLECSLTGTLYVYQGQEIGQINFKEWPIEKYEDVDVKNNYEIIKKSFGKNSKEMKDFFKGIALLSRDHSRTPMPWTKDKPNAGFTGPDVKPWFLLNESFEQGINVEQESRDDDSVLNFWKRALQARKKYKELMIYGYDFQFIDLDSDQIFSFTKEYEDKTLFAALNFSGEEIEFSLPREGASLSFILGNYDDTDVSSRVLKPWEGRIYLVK
Structure (SMILES),IC50 [1] [µM],melting point [°C],Inhibition type (Lineweaver-Burk plots of enzyme activity vs. substrate concentration) [2],Inhibitory mechanism (plots of enzyme activity vs. enzyme concentration) [2],Inhibition type (Lineweaver-Burk plots of enzyme activity vs. substrate concentration) ([2]; listed as derivative four),Inhibitory mechanism (plots of enzyme activity vs. enzyme concentration) ([2]; listed as derivative four)
O=C(CCc1ccccc1)Oc1ccc(-c2cc(=O)c3ccccc3o2)cc1 [Compound 1],42.06 ± 0.08,133 to 134,–,–,–,–
Cc1ccc(CCC(=O)Oc2ccc(-c3cc(=O)c4ccccc4o3)cc2)cc1 [Compound 2],21.55 ± 0.13,135 to 136,–,–,–,–
O=C(CCc1ccc(Cl)cc1)Oc1ccc(-c2cc(=O)c3ccccc3o2)cc1 [Compound 3],31.09 ± 0.1,112 to 114,–,–,–,–
O=C(CCc1ccc(Br)cc1)Oc1ccc(-c2cc(=O)c3ccccc3o2)cc1 [Compound 4],15.7 ± 0.21,127 to 129,mix-type inhibition,reversible inhibitor,mixed-type inhibitor,reversible
O=C(CCc1ccc(F)cc1)Oc1ccc(-c2cc(=O)c3ccccc3o2)cc1 [Compound 5],19.66 ± 0.04,103 to 104,–,–,–,–
O=C(CCc1ccc(C(F)(F)F)cc1)Oc1ccc(-c2cc(=O)c3ccccc3o2)cc1 [Compound 6],27.54 ± 0.02,250 to 251,–,–,–,–

# From article PMC9705736, “Synthesis of activity evaluation of flavonoid derivatives as ɑ-glucosidase inhibitors” (Frontiers in Chemistry, 2022)
